1 compound from patent US20180179386A1, “NANOGEL COMPOUND” (priority 2015, published 2018) can be followed below.

In the series the test system is DOXO resistant cell line KB-V1. Kind of series: Cytotoxicity of DOXO-loaded nanogel compounds vs free DOXO, MTT assay, resistant cells. Format: cell-based. Particulars: free DOXO up to 10 μM external concentration. The source says:
In order to use the nanogel compounds for anticancer therapy, the cytotoxicity of the DOXO-loaded nanogel compounds compared with free DOXO was studied in two different cell lines: sensitive-type HeLa cells and DOXO resistant cell line KB-V1. Thereby, squares denote PNIPAM-dPG/AMPS, circles denote PNIPAM-dPG/DMAEM, and triangles denote free DOXO.
A general note: Tetrazolium dyes change colour on reduction, which living cells bring about.

Molecules are shown by their SMILES.

In the case of `COc1cccc2c1C(=O)c1c(O)c3c(c(O)c1C2=O)C[C@@](O)(C(=O)CO)C[C@@H]3O[C@H]1C[C@H](N)[C@H](O)[C@H](C)O1` [DOXO, doxorubicin], the cytotoxicity result is on record as “no effect”.
